Earlier results in PubChem BioAssay AID1259410 (Chemical Carcinogenesis Research Information System (CCRIS), 2018).

Test system: rodent tumor promotion studies, tumor incidence
Assay: CCRIS tumor promotion studies

For `C=CCC1(C(C)C)C(=O)NC(=O)NC1=O`, the outcome (Carcinogen: N-NITROSODIETHYLAMINE, 55-18-5, Doses [Carcinogen]: 75 MG/KG BW IN 0.85% SALINE ONCE, Doses [Promoter]: 0, 453 PPM IN DIET FOR DURATION OF STUDY BEGINNING 2 WK POST CARCINOGEN DOSE (STUDY DURATION: 78 WK), Route [Carcinogen]: INTRAPERITONEAL, Route [Promoter]: ORAL, Species: RAT, Strain/Sex: F344/MALE) is given as “liver: adenoma”.

For `C=CC1CC=CCC1` (stereo not drawn), the outcome (Carcinogen: 7,12-Dimethylbenz(a)anthracene, 57-97-6, Doses [Carcinogen]: 100 ug once in sesame oil, administered 4 mo after vinylcyclohexene diepoxide dosing, Doses [Promoter]: 160 mg/kg bw for 25 days, administered daily in sesame oil, study duration 3 or 5 months, Route [Carcinogen]: Directly on ovary, Route [Promoter]: Intraperitoneal, Species: Rat, Strain/Sex: Fischer 344/Female) is listed as “ovary: tumors (non-neoplastic cystic ovaries also observed)”.

For `CCCCCCCCCC(=O)O[C@@]12C[C@@H](C)[C@@]3(O)[C@@H](C=C(CO)C[C@]4(O)C(=O)C(C)=C[C@@H]34)[C@@H]1C2(C)C`, the outcome (Carcinogen: 7,12-DIMETHYLBENZ[A]ANTHRACENE, 57-97-6, Doses [Carcinogen]: 100 NMOL ONCE, Doses [Promoter]: 0, 40 NMOL 2/WK FOR 48 WK (STUDY DURATION: 48 WK), Route [Carcinogen]: DERMAL, Route [Promoter]: DERMAL, Species: MOUSE, Strain/Sex: NMRI) is listed as “skin: tumor”.

In the case of `Nc1nc(-c2ccccc2)c(-c2ccccc2)s1`, the outcome (Carcinogen: N-ETHYL-N-HYDROXYETHYLNITROSAMINE, 13147-25-6, Doses [Carcinogen]: 1000 PPM IN DRINKING WATER FOR 2 WK, Doses [Promoter]: 0, 1.06% IN DIET FOR 14 WK BEGINNING POST CARCINOGEN TREATMENT (STUDY DURATION: 32 WK), Route [Carcinogen]: ORAL, Route [Promoter]: ORAL, Species: RAT, Strain/Sex: WISTAR/MALE) is given as “kidney: renal cell tumor” and the outcome (Carcinogen: N-ETHYL-N-HYDROXYETHYLNITROSAMINE, 13147-25-6, Doses [Carcinogen]: 1000 PPM IN DRINKING WATER FOR 2 WK, Doses [Promoter]: 0, 1.06% IN DIET FOR 30 WK BEGINNING POST CARCINOGEN TREATMENT (STUDY DURATION: 32 WK), Route [Carcinogen]: ORAL, Route [Promoter]: ORAL, Species: RAT, Strain/Sex: WISTAR/MALE) is given as “kidney: renal cell tumor”.

In the case of `CC(=O)OCC(CO)OC(C)=O` (stereo not drawn), the outcome (Carcinogen: 4-Nitroquinoline 1-oxide, 56-57-5, Doses [Carcinogen]: 10 ppm in drinking water from wks 0-10, study duration 35 wk, Doses [Promoter]: 0, 2.75%, 5.5%, 11% in diet from wks 11-35, study duration 35 wks, Doses [Promoter]: 0, 2.75%, 5.5%, 11% in diet from wks 11-35, study duration 35 wks, Route [Carcinogen]: Oral, Route [Promoter]: Oral, Species: Rat, Strain/Sex: Sprague-Dawley/Male (30/Group)) is listed as “tongue: squamous cell papillomas and carcinomas; oral cavity: squamous cell papi”, the outcome (Carcinogen: 7,12-Dimethylbenz(a)anthracene, 57-97-6, Doses [Carcinogen]: 100 ug in 100 ul acetone once at 6 wk of age, Doses [Promoter]: 0, 12, 30, 75 mg, 5 d/wk beginning 1 wk after carcinogen administration for 35 wk, study duration 36 wk, Route [Carcinogen]: Dermal, Route [Promoter]: Dermal, Species: Mouse, Strain/Sex: ICR/Female) is listed as “skin: papillomas” and the outcome (Carcinogen: 7,12-Dimethylbenz(a)anthracene, 57-97-6, Doses [Carcinogen]: 100 ug in 100 ul acetone once at 6 wk of age, Doses [Promoter]: 0, 30, 75 mg, twice daily, 5 d/wk beginning 1 wk after carcinogen administration for 35 wk, study duration 36 wk, Route [Carcinogen]: Dermal, Route [Promoter]: Dermal, Species: Mouse, Strain/Sex: ICR/Female) is listed as “skin: papillomas and squamous cell carcinomas”.

In the case of `CCOc1ccc(NC(C)=O)cc1`, the outcome (Carcinogen: DIHYDROXY-DI-N-PROPYLNITROSAMINE, 53609-64-6, URACIL, 66-22-8, Carcinogen: DIHYDROXY-DI-N-PROPYLNITROSAMINE, 53609-64-6, URACIL, 66-22-8, Doses [Carcinogen]: 0.1% DHPN IN DRINKING WATER AND 3% URACIL IN THE DIET FOR 4 WK, Doses [Promoter]: 0, 2% IN DIET BEGINNING 1 WK POST CARCINOGEN TREATMENT AND CONTINUING FOR 35 WK (STUDY DURATION: 40 WK), Route [Carcinogen]: ORAL, ORAL, Route [Promoter]: ORAL, Species: RAT, Strain/Sex: F344/MALE) is listed as “kidney: adenoma or adenocarcinoma; urinary bladder: papilloma”, the outcome (Carcinogen: N-BUTYL-N-(4-HYDROXYBUTYL)NITROSAMINE, 3817-11-6, Doses [Carcinogen]: 0.05% IN DRINKING WATER FOR 4 WK, Doses [Promoter]: 0, 2% IN DIET FOR 8 WK AND 3 WK WITH A 4 WK INTERVAL BETWEEN TREATMENTS ADMINISTERED PRIOR TO CARCINOGEN TREATMENT (STUD, Route [Carcinogen]: ORAL, Route [Promoter]: ORAL, Species: MOUSE, Strain/Sex: NON/SHI/MALE) is listed as “renal pelvis: carcinoma” and the outcome (Carcinogen: N-BUTYL-N-(4-HYDROXYBUTYL)NITROSAMINE, Doses [Carcinogen]: 0.01, 0.05% IN DRINKING WATER FOR 4 WK, Doses [Promoter]: 2.5% IN DIET FOR 30 WK FOLLOWED BY CONTROL DIET FOR 6 WK, Route [Carcinogen]: ORAL, Route [Promoter]: ORAL, Species: RAT, Strain/Sex: WISTAR/MALE) is listed as “urinary bladder: papilloma, carcinoma”.

In the case of `CCCCCCC(=O)C/C=C/CCCCCCCC(=O)OC`, the outcome (Carcinogen: 4-NITROQUINOLINE-1-OXIDE, Doses [Carcinogen]: IG, Doses [Promoter]: IN DIET, Route [Carcinogen]: GAVAGE, Route [Promoter]: ORAL, Species: MOUSE, Strain/Sex: MALE,FEMALE) is given as “forestomach” and the outcome (Carcinogen: 7,12-DIMETHYLBENZ(A)ANTHRACENE, Doses [Carcinogen]: TOP, Route [Carcinogen]: DERMAL, Route [Promoter]: DERMAL, Species: MOUSE, Strain/Sex: MALE,FEMALE) is given as “integumentary system (skin)”.

In the case of `C=C1/C(=C\C=C2/CCC[C@]3(C)[C@@H]([C@H](C)CCCC(C)(C)O)CC[C@@H]23)C[C@@H](O)C[C@@H]1O`, the outcome (Carcinogen: 7,12-DIMETHYLBENZ[A]ANTHRACENE, 57-97-6, Doses [Carcinogen]: 50 NMOL IN 200 µL ACETONE 2/WK FOR 16 WK, Doses [Promoter]: 0, 0.25, 0.5 NMOL IN 200 µL ACETONE APPLIED 1 HR PRIOR TO CARCINOGEN DOSES 2/WK FOR 16 WK (STUDY DURATION: 16 WK), Doses [Promoter]: 0, 0.25, 0.5 NMOL IN 200 µL ACETONE APPLIED 1 HR PRIOR TO CARCINOGEN DOSES 2/WK FOR 16 WK (STUDY DURATION: 16 WK), Route [Carcinogen]: DERMAL, Route [Promoter]: DERMAL, Species: MOUSE, Strain/Sex: CD-1/FEMALE) is listed as “skin: tumors”, the outcome (Carcinogen: 7,12-DIMETHYLBENZ[A]ANTHRACENE, 57-97-6, Doses [Carcinogen]: 50 NMOL IN 200 µL ACETONE 2/WK FOR 16 WK, Doses [Promoter]: 0, 0.25 NMOL IN 200 µL ACETONE APPLIED 1 HR PRIOR TO AND 24 HR POST CARCINOGEN DOSES 2/WK FOR 16 WK (STUDY DURATION: 16, Route [Carcinogen]: DERMAL, Route [Promoter]: DERMAL, Species: MOUSE, Strain/Sex: CD-1/FEMALE) is listed as “skin: tumors” and the outcome (Carcinogen: 7,12-DIMETHYLBENZ[A]ANTHRACENE, 57-97-6, Doses [Carcinogen]: 50 NMOL IN 200 µL ACETONE 2/WK FOR 16 WK, Doses [Promoter]: 0, 0.5 NMOL IN 200 µL ACETONE APPLIED 24 HR POST CARCINOGEN DOSES 2/WK FOR 16 WK (STUDY DURATION: 16 WK), Route [Carcinogen]: DERMAL, Route [Promoter]: DERMAL, Species: MOUSE, Strain/Sex: CD-1/FEMALE) is listed as “skin: tumors”. The outcome (Carcinogen: N-METHYL-N'-NITRO-N-NITROSOGUANADINE, 70-25-7, Doses [Carcinogen]: 150 MG/L IN DRINKING WATER, Doses [Promoter]: 0, 2.5, 5 MG/KG IN DIET FOR DURATION OF STUDY BEGINNING 4 WK POST CARCINOGEN TREATMENT (STUDY DURATION: 32 WK), Doses [Promoter]: 0, 2.5, 5 MG/KG IN DIET FOR DURATION OF STUDY BEGINNING 4 WK POST CARCINOGEN TREATMENT (STUDY DURATION: 32 WK), Route [Carcinogen]: ORAL, Route [Promoter]: ORAL, Species: RAT, Strain/Sex: WISTAR/MALE) was “glandular stomach: adenocarcinoma”.

For `Cc1ccc(O)c(C)c1`, the outcome (Carcinogen: 7,12-DIMETHYLBENZ(A)ANTHRACENE, Doses [Carcinogen]: TOP, Route [Carcinogen]: DERMAL, Route [Promoter]: DERMAL, Species: MOUSE, Strain/Sex: FEMALE) is given as “integumentary system (skin)”.
